Structures can show the parent of a compound that is named as a salt. Where two headings read alike, the source gives them in different places.
What was measured:
[1] = system: zebrafish larvae; assay: Fluorescent microsphere spectrophotometric assay of propulsive GI motility; format: in vivo; details: for Reduction of fluorescence intensity: 11 dpf larvae, one day after loading; for Total fluorescence intensity one day after loading: 11 day old larvae, 10^−5 mg/ml, n=5
Excerpt: Gastrointestinal (GI) motility disorders such as constipation and dyspepsia are common, but current treatment options are largely ineffective, primarily due to a limited understanding of GI motility. The broad objective is to develop a new zebrafish-based model system for GI motility. Muscular contractions of the GI tract may be directly observed in a zebrafish larva, and GI motility has been quantified as contraction frequency. […] The specific objective of this project is to develop an assay to specifically measure propulsion of luminal contents. […] A decrease in fluorescence emission would indicate that ingested microspheres have been eliminated via propulsive motility. Fluorescence spectroscopy was used to quantify the fluorescence intensity as a function of time.
Total fluorescence emission averaged 62,630±23,780 counts per sec (n=5 samples, 5 larvae grouped per sample) immediately after ingestion in 11 day old larvae. One day later total fluorescence intensity averaged 53,277±6,333 counts per sec, a 15% decrease (n=5, P<0.05). […] Two prokinetic agents, erythromycin and 5-hydroxytryptamine (10^−5 mg/ml), were used to validate the assay. One day after loading, the total fluorescence intensity decreased after application of erythromycin (69,782±10,423, n=5, P<0.09) and with 5 HT (86,820±21,850, n=5, P<0.003).
After larvae spontaneously ingest the fluorescent micro spheres, which were suspended in the medium that the larvae are in, the larvae were washed and separated into 2 groups. The first group was sacrificed and mashed. The total fluorescence emission was measured from the ‘mashed’ larvae. The second group was sacrificed some time later. If GI motility is functional then some fraction of the micro spheres will have been excreted as a result of GI propulsive motility. The second group was sacrificed and mashed and total fluorescence emission was measured.
The difference between Group 1 and Group 2 represents the fraction of beads that has been excreted and this difference is a measure of functional GI propulsive motility.

[2] = system: zebrafish larvae; assay: Spatiotemporal mapping of spontaneous GI motility; format: in vivo; details: 11 dpf larvae treated with 50 μM Gleevec
Excerpt: Spontaneous GI motility occurs at regular intervals and propagates along the GI tract at 11 dpf when ICC are fully present in the GI tract.
This Example uses digital imaging and image processing techniques to quantify coordinated GI motility. […] These types of motility can be distinguished in time-lapse digital images.
This Example uses a technique, spatiotemporal mapping, that converts a series of images into a single image with dimensions of time and distance. This single image supplies data on movement, and therefore propagation contractions can be visualized and quantified.

[3] = system: zebrafish larvae
[4] = 14 dpf Gleevec treated larvae, Table 1 of Example 8
[5] = 14 dpf Gleevec treated larvae, per 300 second interval, Table 1 of Example 8
[6] = 14 dpf larvae, imatinib mesylate 50 μM added at 5 dpf, n = 3
[7] = imatinib mesylate 50 μM added at 5 dpf

Compound	Reduction of fluorescence intensity [1] [%]	Total fluorescence intensity one day after loading [1]	Spontaneous motility (spatiotemporal map) [2]	Distance [3, 4] [μm]	Velocity [3, 4] [μm/sec]	Total # contractions, Average [3, 5]	Total # contractions, Total [3, 5]	Distance [3, 6] [μm]	Velocity [3, 6] [μm/sec]	Total # contractions/300 sec ([3]; 14 dpf larvae, imatinib mesylate 50 μM added to medium at 5 dpf, n = 3) [contractions/300 sec]	Contractions in treated 14 dpf larvae (description) ([3]; Gleevec treated 14 dpf larvae)	Character of the remaining contractions [3, 7]	Effect on number of contractions [3, 7]
NCCc1c[nH]c2ccc(O)cc12 [5-hydroxytryptamine]	53	86,820±21,850 counts per sec	–	–	–	–	–	–	–	–	–	–	–
CC[C@H]1OC(=O)[C@H](C)[C@@H](O[C@H]2C[C@@](C)(OC)[C@@H](O)[C@H](C)O2)[C@H](C)[C@@H](O[C@@H]2O[C@H](C)C[C@H](N(C)C)[C@H]2O)[C@](C)(O)C[C@@H](C)C(=O)[C@H](C)[C@@H](O)[C@]1(C)O [erythromycin]	23	69,782±10,423 counts per sec	–	–	–	–	–	–	–	–	–	–	–
Cc1ccc(NC(=O)c2ccc(CN3CCN(C)CC3)cc2)cc1Nc1nccc(-c2cccnc2)n1 [imatinib mesylate]	–	–	absent	399.8 ± 67.2	10.2 ± 3.1	2.3 ± 0.58	7	399.8 ± 67.2	10.2 ± 3.1	7	few contractions which were variable and did not fully propagate	unorganized, shorter and slower	decrease in the number of contractions

From patent US20100275276A1, “ZEBRAFISH MODEL FOR ASSESSING GASTROINTESTINAL MOTILITY” (THE RESEARCH FOUNDATION OF STATE UNIVERSITY OF NEW YORK, priority 2006, published 2010)
